# From patent US20130183239A1, “ISOTOPIC CARBON CHOLINE ANALOGS” (IMPERIAL COLLEGE, priority 2010, published 2013)
# “Also recorded” adds a separate entry of the source.
# Key:
# [1] = tested on: human melanoma SKMEL-28 xenografts; settings: mouse, in vivo, 60 min
# Method: (§1) Dynamic [^18F]FCH and [^18F]D4-FCH imaging scans were carried out on a dedicated small animal PET scanner, quad-HIDAC (Oxford Positron Systems). The features of this instrument have been described previously (Barthel, H., et al., Cancer Res 2003; 63(13):3791-8). For scanning the tail veins, vehicle- or drug-treated mice were cannulated after induction of anesthesia (isofluorane/O2/N2O). The animals were placed within a thermostatically controlled jig (calibrated to provide a rectal temperature of ˜37° C.) and positioned prone in the scanner. [^18F]FCH or [^18F]D4-FCH (2.96-3.7 MBq) was injected via the tail vein cannula and scanning commenced. Dynamic scans were acquired in list mode format over a 60 min period as reported previously (Leyton, J., et al., Cancer Research 2006; 66(15):7621-9). The acquired data were sorted into 0.5 mm sinogram bins and 19 time frames (0.5×0.5×0.5 mm voxels; 4×15, 4×60, and 11×300 s) for image reconstruction, which was done by filtered back-projection using a two-dimensional Hamming filter (cutoff 0.6). The image data sets were visualized using the Analyze software (version 6.0; Biomedical Imaging Resource, Mayo Clinic). Cumulative images of 30 to 60 min dynamic data were used for visualization of radiotracer uptake and to draw regions of interest. Regions of interest were defined manually on five adjacent tumor regions (each 0.5 mm thickness). Dynamic data from these slices were averaged for each tissue (liver, kidney, muscle, urine, and tumor) and at each of the 19 time points to obtain time versus radioactivity curves. Corresponding whole body time versus radioactivity curves representing injected radioactivity were obtained by adding together radioactivity in all 200×160×160 reconstructed voxels. Tumor radioactivity was normalized to whole-body radioactivity and expressed as percent injected dose per voxel (% ID/vox). The normalized uptake of radiotracer at 60 min (% ID/vox60) was used for subsequent comparisons. The average of the normalized maximum voxel intensity across five slices of tumor % IDvox60max was also use for comparison to account for tumor heterogeneity and existence of necrotic regions in tumor. The area under the curve was calculated as the integral of % ID/vox from 0 to 60 min.
# [2] = mouse, in vivo, 60 min
# Method: as §1
# [3] = mouse, in vivo
# Method: Metabolite analysis of tissues including liver, kidney and tumor by HPLC was also accomplished. […] Choline and its metabolites lack any UV chromophore to permit presentation of chromatograms of the cold unlabelled compound simultaneously with the radioactivity chromatograms.
# Liver, kidney, and tumor samples were obtained at 30 min. All samples were snap-frozen in liquid nitrogen. For analysis, samples were thawed and kept at 4° C. immediately before use. To ˜0.2 mL plasma was added ice-cold methanol (1.5 mL). The mixture was then centrifuged (3 min, 15,493×g, 4jC). The supernatant was evaporated to dryness using a rotary evaporator (Heidoloph Instruments) at a bath temperature of 40° C. The residue was suspended in mobile phase (1.1 mL), clarified (0.2 Am filter), and analyzed by HPLC. Liver, kidney, and tumor samples were homogenized in ice-cold methanol (1.5 mL) using an IKA Ultra-Turrax T-25 homogenizer and subsequently treated as per plasma samples (above). All samples were analyzed by radio-HPLC on an Agilent 1100 series HPLC system (Agilent Technologies) equipped with a γ-RAM Model 3 γ-detector (IN/US Systems) and Laura 3 software (Lablogic). The stationary phase comprised a Waters μBondapak C18 reverse-phase column (300×7.8 mm) (Waters, Milford, Mass., USA). Samples were analyzed using a mobile phase comprising solvent A (acetonitrile/water/ethanol/acetic acid/1.0 mol/L ammonium acetate/0.1 mol/L sodium phosphate; 800/127/68/2/3/10) and solvent B (acetonitrile/water/ethanol/acetic acid/1.0 mol/L ammonium acetate/0.1 mol/L sodiumphosphate; 400/400/68/44/88/10) with a gradient of 0% B for 6 min, then 0→100% B in 10 min, 100% B for 0.5 min, 100→0% B in 1.5 min then 0% B for 2 min, delivered at a flow rate of 3 mL/min.
# [4] = Potassium permanganate oxidation study; assay type: physicochemical; settings: 1 hour post-treatment with potassium permanganate, room temperature, radio-HPLC
# Text: Reagents and Conditions: i) KMnO4, Na2CO3, H2O, rt.
# [5] = tested on: choline oxidase; settings: 60 min, 1.76 MBq/mL, pH 7
# [6] = C3H-Hej, mouse, in vivo, iv, 15 min
# [7] = tested on: choline kinase A (CHKA); test: Western blot of choline kinase A expression in HCT116 tumors after PD0325901; assay type: in vivo, human; settings: HCT116 tumors at day 10, western blot
# Method: HCT116 tumors from mice that were injected with PD0325901 (25 mg/kg daily for 10 days, orally) or vehicle were analyzed for CHKA expression by western blotting. β-actin was used as the loading control. (b) Summary densitometer measurements for CHKA expression expressed as a ratio to β-actin. The results are the mean ratios±SE; n=3, * P=0.05.
# (§2) Size-matched HCT116 tumor bearing mice were randomized to receive daily treatment by oral gavage of vehicle (0.5% hydroxypropyl methylcellulose+0.2% Tween 80) or 25 mg/kg (0.005 mL/g mouse) of the mitogenic extracellular kinase inhibitor, PD0325901, prepared in vehicle. [^18F]D4-FCH-PET scanning was done after 10 daily treatments with the last dose administered 1 h before scanning. […] The results are illustrated in FIGS. 18 and 19.
# To understand further the mechanisms regulating [^18F]D4-FCH uptake with drug treatment, changes in CHKA expression in PD0325901 and vehicle-treated tumors excised after PET scanning were assessed.
# [8] = tested on: HCT116 cells; test: [18F]D4-FCH-phosphocholine formation in HCT116 cells treated with PD0325901; assay type: cell-based, human; settings: PD0325901 1 μM for 24 h, 60-min uptake
# Method: HCT116 cells were grown in T150 flasks in triplicate until they were 70% confluent and then treated with vehicle (1% DMSO in growth medium) or 1 μmol/L PD0325901 in vehicle for 24 h. Cells were pulsed for 1 h with 1.1 MBq of either […]D4—FCH or [^18F]FCH. The cells were washed three times in ice-cold phosphate buffered saline (PBS), scraped into 5 mL PBS, and centrifuged at 500×g for 3 min and then resuspended in 2 mL ice-cold methanol for HPLC analysis as described above for tissue samples. […] Briefly, HCT116 cells were grown in 100 mm dishes in triplicate and incubated with 5.0 MBq [^18F]FCH for 60 min at 37° C. to form the putative [^18F]FCH-phosphate. The cells were washed with 5 mL ice-cold PBS twice and then scraped and centrifuged at 750×g (4° C., 3 min) in 5 mL PBS. Cells were homogenized in 1 mL of 5 mmol/L Tris-HCl (pH 7.4) containing 50% (v/v) glycerol, 0.5 mmol/L MgCl2, and 0.5 mmol/L ZnCl2 and incubated with 10 units bacterial (type III) alkaline phosphatase (Sigma) at 37° C. in a shaking water bath for 30 min to dephosphorylate the [^18F]FCH-phosphate. The reaction was terminated by adding ice-cold methanol. Samples were processed as per plasma above and analyzed by radio-HPLC. Control experiments were done without alkaline phosphatase. […]
# [9] = tested on: HCT116 tumors; test: PD0325901 treatment of HCT116 tumor-bearing mice with [18F]D4-FCH-PET; assay type: in vivo
# Method: as §2
# These studies were performed in a reproducible tumor model system in which treatment outcomes had been previously characterized, i.e., the human colon carcinoma xenograft HCT116 treated with PD0325901 daily for 10 days (Leyton, J., et al., “Noninvasive imaging of cell proliferation following mitogenic extracellular kinase inhibition by PD0325901”, Mol Cancer Ther 2008; 7(9):3112-21). […] All imaging variables decreased after 10 days of drug treatment (P=0.05, FIG. 18). […] To understand the biomarker changes, the intrinsic cellular effect of PD0325901 on D4-FCH-phosphocholine formation was examined by treating exponentially growing HCT116 cells in culture with PD0325901 for 24 h and measuring the 60-min uptake of [^18F]D4-FCH in vitro.
# [10] = tested on: CHKA; test: CHKA expression in exponentially growing cells treated with PD0325901; assay type: cell-based
smiles,measurement,setting,value
"C[N+](C)(C[18F])CCO [[^18F]FCH, [^18F]Fluoromethylcholine, reference compound]",Tumor % ID/vox60,[1],5.50±0.49 % ID/vox
same,Bladder (urine) % ID/vox60,[2],6.70±0.71 % ID/vox
same,Kidney % ID/vox60,[2],15.97±4.65 % ID/vox
same,Liver radioactivity % ID/vox60,[2],18.75±4.28 % ID/vox
same,unknown metabolite (possibly the aldehyde intermediate) in liver,[3],not found
same,kidney radioactivity as phosphocholine,[3]; 30 min,31.8±9.8%
same,kidney radioactivity in the form of betaine,[3]; 30 min,53.5±5.3%
same,unknown metabolite in kidney,[3]; 30 min,3.3±0.6%
same,form of radioactivity in tumors,"[3]; iv, 30 min",significant levels of [^18F]FCH-betaine
same,parent compound still present,[4],less than 40%
same,parent radiotracer present,[5],11±8%
same,conversion to betaine metabolite in plasma,[6],~80%
O=C(NOC[C@H](O)CO)c1ccc(F)c(F)c1Nc1ccc(I)cc1F [PD0325901],CHKA protein expression in vivo,[7],significant reduction
same,[18F]D4-FCH-phosphocholine formation,[8],significantly inhibited
same,tumor [18F]D4-FCH uptake / retention,"[9]; HCT116 tumors, 10 days of 25 mg/kg daily vs vehicle, 25 mg/kg",significant reduction in tumor [^18F]D4-FCH uptake; also recorded: marked reduction in radiotracer retention
same,reduction in tumor size,"[9]; day 10 compared to the pretreatment group, 25 mg/kg daily, oral",12.2%
same,CHKA expression in vitro,[10],reduction of CHKA expression
